Reference: patent US20240245677A1, “SELECTED COMPOUNDS FOR TARGETED DEGRADATION OF BRD9” (C4 THERAPEUTICS, INC., priority 2021, published 2024)

Tests used:
IKZF1 = biological target: T1, IKZF1 (Homo sapiens, UniProt Q13422+Q96SW2); assay: IKZF1 HiBiT degradation assay in NCIH929.11 cells; assay type: cell-based
T1 construct: CRISPR-edited to endogenously express HiBiT tagged IKZF1; host or cells: NCIH929.11

[1] = Crystallization by heat-cool DSC; assay type: physicochemical; settings: Cycle 2: 30 to 180° C. at 10° C./min; 180 to −20° C. at 2° C./min; re-heat to 250° C. at 10° C./min
Procedure: Polymorphic behavior of Compound 1 free form was investigated by two different heat-cool DSC cycles using free form Pattern E. A Tzero pan and a Tzero hermetic lid with a pin hole were used for this experiment. Cycle 1: 30° C. to 180° C. at 10° C./min; 180° C. to −20° C. at 20° C./min; reheat to 250° C. at 10° C./min. Cycle 2: 30° C. to 180° C. at 10° C./min; 180° C. to −20° C. at 2° C./min; reheat to 250° C. at 10° C./min.

HepG2 cells = assay: HepG2 in vitro viability assay (CellTiter-Glo, 72 hours); assay type: cell-based, human; settings: 72 hours
Procedure: (§1) This assay assessed the general cytotoxicity of Compound 1 using the human hepatocarcinoma cell line HepG2. HepG2 cells were treated with Compound 1 for 72 hours and cellular viability was measured following the addition of CellTiter-Glo® 2.0 reagent (Promega) according to manufacturer's instructions. Agents were solubilized in DMSO and tested in the HepG2 cell line at concentrations ranging from 0.3 nM to 10 μM.
(§2) HepG2 cells were obtained from ATCC (Catalog No. HB-8065, Manassas, VA, USA) and maintained in MEM medium (Catalog No. 11095080, ThermoFisher Scientific, Waltham, MA, USA) supplemented with 10% heat inactivated fetal bovine serum (FBS) (Catalog No. 16000-044, Gibco, Grand Island, NY, USA) at 37° C. in an atmosphere of 5% CO2 in air. The cells were routinely sub-cultured to maintain cell density between 3×10^5-1.5×10^6 cells/mL, not to exceed 20 passages. Cells were washed with PBS, trypsinized for 5 min at 37° C., and resuspended in growth media. An aliquot was diluted 2× with Trypan Blue solution 0.4% (Catalog No. 15250061, ThermoFisher Scientific, Waltham, MA, USA) and cell count was determined. Cell concentration was adjusted with growth media to 1.0×10^4 cells/mL.
(§3) Compound 1 was prepared by dissolving neat compound in DMSO (Catalog No. D8418, Sigma-Aldrich, Inc., St. Louis, MO, USA) to generate 10 mM stock solution and stored at −20° C. 10 mM DMSO stock solution of Compound 1 was serially diluted (half log) in DMSO to generate 10-point dose series ([…]) in acoustic ready 384-well low dead volume microplates (Catalog No. LP-0200, Beckman Coulter Life Sciences, Indianapolis, IN, USA). Using an Echo 550 Acoustic Liquid Handler Handler (Beckman Coulter Life Sciences, Indianapolis, IN, USA), 50 nL of serially diluted compound solutions were dispensed directly in quadruplicate to each 384-well black TC-treated microplate (Catalog No. 3571, Corning, Glendale, CA, USA). 50 nL DMSO was transferred to all control wells.
(§4) 50 μL HepG2 cells suspended in growth media at 1.0×10^4 cells/mL (500 cells/well) were dispensed using a Multidrop Combi Reagent Dispenser (Catalog No. 5840300, ThermoFisher Scientific, Waltham, MA, USA) to each well of 384-well black TC-treated microplates containing quadruplicate concentration range of test compound and DMSO controls. Plates were incubated at 37° C., 5% CO2 for 72 hours. Final concentration of DMSO was 0.1% for all samples.
(§5) Additional cell plates (TO plates) were prepared by dispensing cells into a blank 384-well black TC-treated microplate to represent cytostatic controls and processed for viability detection immediately after cell dispensing.
(§6) HepG2 cell viability was determined based on quantification of ATP using CellTiter-Glo® 2.0 luminescent assay kit (Catalog No. G9243, Promega, Madison, WI, USA), which signals the presence of metabolically active cells. On Day 0 (Time 0) and Day 3 (72 hours) 25 μL CellTiter-Glo® reagent was added to each well of cell plates except the wells in column 24 and the luminescence was measured after 4 hours incubation at room temperature using an EnVision® Multilabel Reader (Catalog No. 2104-0010, Perkin Elmer Inc., Dumfries, VA, USA). Column 24 (cells without CellTiter-Glo® addition) was used as plate background or positive control (P).
(§7) Cytostatic control value (CT0) was computed from TO plate read using untreated cell signals (UT=0) and positive control signals (PT=0) as below.
(§8) Percent response of compound-treated samples at a time point T were calculated by normalizing the signal with P and DMSO treated negative (N) controls on the same microtiter plate and the CT0 control:
(§9) The Response % is thus 100% if the CellTiter-Glo® signal equals that of the DMSO treated controls (i.e., normal cell growth), 0% if it equals that of untreated cell at TO (i.e., cytostasis), and −100% if it equals the no CellTiter-Glo® reagent controls (i.e., complete cytotoxicity). […]

[2] = as above; assay type: cell-based, human; settings: human, HepG2 cells, 72-hour treatment
Procedure: as §1, §2, §3, §4, §5, §6, §7, §8, §9

T1 sequence (Q13422 whole entry): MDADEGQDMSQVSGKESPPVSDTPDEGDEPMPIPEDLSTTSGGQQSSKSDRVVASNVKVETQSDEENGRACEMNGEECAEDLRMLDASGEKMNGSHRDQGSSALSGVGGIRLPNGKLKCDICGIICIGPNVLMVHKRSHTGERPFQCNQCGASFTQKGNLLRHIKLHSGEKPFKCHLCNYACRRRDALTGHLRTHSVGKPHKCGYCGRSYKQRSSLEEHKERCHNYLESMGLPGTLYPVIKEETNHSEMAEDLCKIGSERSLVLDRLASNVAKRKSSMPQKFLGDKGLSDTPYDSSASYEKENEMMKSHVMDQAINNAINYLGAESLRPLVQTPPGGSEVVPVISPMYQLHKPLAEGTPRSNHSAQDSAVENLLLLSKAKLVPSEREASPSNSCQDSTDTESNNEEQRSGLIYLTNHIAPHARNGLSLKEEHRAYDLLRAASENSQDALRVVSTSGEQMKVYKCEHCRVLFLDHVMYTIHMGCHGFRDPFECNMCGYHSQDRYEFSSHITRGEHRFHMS
T1 sequence (Q96SW2 whole entry): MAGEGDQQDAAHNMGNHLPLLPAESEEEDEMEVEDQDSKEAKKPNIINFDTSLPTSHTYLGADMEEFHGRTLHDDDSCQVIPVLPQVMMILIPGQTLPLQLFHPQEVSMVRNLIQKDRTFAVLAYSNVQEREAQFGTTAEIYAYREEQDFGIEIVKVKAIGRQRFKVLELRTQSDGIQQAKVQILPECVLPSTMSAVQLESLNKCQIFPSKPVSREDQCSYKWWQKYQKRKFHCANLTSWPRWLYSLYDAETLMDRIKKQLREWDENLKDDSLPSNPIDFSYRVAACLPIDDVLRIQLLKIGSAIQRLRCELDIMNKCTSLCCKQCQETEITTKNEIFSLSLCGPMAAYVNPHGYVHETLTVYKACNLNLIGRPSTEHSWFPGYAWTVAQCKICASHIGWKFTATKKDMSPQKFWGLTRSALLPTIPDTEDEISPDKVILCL
T1 sequence (Q16531 2-1140 partner limits assumed): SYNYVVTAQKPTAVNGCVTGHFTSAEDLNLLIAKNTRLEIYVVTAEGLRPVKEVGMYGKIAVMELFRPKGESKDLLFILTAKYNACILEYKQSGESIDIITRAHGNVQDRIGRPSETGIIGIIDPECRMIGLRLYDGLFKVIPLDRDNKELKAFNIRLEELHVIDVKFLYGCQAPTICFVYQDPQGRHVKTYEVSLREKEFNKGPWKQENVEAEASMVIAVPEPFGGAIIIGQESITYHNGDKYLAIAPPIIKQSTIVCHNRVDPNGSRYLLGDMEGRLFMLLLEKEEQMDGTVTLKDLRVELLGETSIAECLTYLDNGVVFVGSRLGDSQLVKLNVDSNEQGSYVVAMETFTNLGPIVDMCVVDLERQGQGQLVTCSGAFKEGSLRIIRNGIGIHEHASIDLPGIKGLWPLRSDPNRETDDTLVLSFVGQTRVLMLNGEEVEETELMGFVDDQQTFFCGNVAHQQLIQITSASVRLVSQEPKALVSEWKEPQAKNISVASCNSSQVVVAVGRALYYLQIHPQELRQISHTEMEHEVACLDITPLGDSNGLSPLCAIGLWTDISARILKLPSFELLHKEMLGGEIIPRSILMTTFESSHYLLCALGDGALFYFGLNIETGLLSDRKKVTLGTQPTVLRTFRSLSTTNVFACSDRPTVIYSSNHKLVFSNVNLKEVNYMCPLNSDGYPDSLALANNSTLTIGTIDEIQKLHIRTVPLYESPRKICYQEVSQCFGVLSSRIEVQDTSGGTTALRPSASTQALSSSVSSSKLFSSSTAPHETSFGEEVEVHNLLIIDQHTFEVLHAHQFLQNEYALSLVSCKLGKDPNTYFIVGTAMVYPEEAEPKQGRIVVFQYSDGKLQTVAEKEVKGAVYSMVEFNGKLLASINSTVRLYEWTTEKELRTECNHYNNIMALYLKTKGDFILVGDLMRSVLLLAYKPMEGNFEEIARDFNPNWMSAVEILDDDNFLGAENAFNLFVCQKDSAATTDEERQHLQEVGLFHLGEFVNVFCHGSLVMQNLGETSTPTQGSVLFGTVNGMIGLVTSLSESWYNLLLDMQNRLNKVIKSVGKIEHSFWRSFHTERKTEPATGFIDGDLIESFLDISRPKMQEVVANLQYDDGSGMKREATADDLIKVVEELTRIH

## COc1cc(-c2cn(C)c(=O)c(C)c2C)cc(OC)c1CN1CC[C@H](N2CCN(c3ccc(N[C@H]4CCC(=O)NC4=O)cc3F)CC2)C(F)(F)C1 [Compound 1, (S)-3-((4-(4-((S)-1-(2,6-dimethoxy-4-(1,4,5-trimethyl-6-oxo-1,6-dihydropyridin-3-yl)benzyl)-3,3-difluoropiperidin-4-yl)piperazin-1-yl)-3-fluorophenyl)amino)-piperidine-2,6-dione]
IKZF1; 0.101 nM
  % IKZF1 Remaining Relative to Vehicle Control at 6 hr, Mean: 100.8%
IKZF1; 0.318 nM
  % IKZF1 Remaining Relative to Vehicle Control at 6 hr, Mean: 106.4%
IKZF1; 1.01 nM
  % IKZF1 Remaining Relative to Vehicle Control at 6 hr, Mean: 102.9%
IKZF1; 3.17 nM
  % IKZF1 Remaining Relative to Vehicle Control at 6 hr, Mean: 100.4%
IKZF1; 10.0 nM
  % IKZF1 Remaining Relative to Vehicle Control at 6 hr, Mean: 98.5%
IKZF1; 31.7 nM
  % IKZF1 Remaining Relative to Vehicle Control at 6 hr, Mean: 96.0%
IKZF1; 100 nM
  % IKZF1 Remaining Relative to Vehicle Control at 6 hr, Mean: 95.9%
IKZF1; 317 nM
  % IKZF1 Remaining Relative to Vehicle Control at 6 hr, Mean: 91.5%
IKZF1; 1000 nM
  % IKZF1 Remaining Relative to Vehicle Control at 6 hr, Mean: 93.3%
IKZF1; 3161 nM
  % IKZF1 Remaining Relative to Vehicle Control at 6 hr, Mean: 80.8%
IKZF1; 9990 nM
  % IKZF1 Remaining Relative to Vehicle Control at 6 hr, Mean: 74.2%
IKZF1; 10 μM, 6 hours
  degradation of IKZF1: 25%
IKZF1; IKZF1-HiBiT, NCIH929.11 cells, 6 hours, read-out: Mean Emax (%) ± SD
  Emax: 74.2 ± 8.2%
IKZF1; concentrations up to 1 μM, 6 hours
  effect on degradation of IKZF1: no significant effect
[1]
  Thermal events: Glass transition: Glass transition: 135.7° C.; Delta Cp:
HepG2 cells; Homo sapiens, HepG2, read-out: growth inhibition of HepG2 cells relative to 0.1% DMSO controls, 10 μM
  inhibition at 10 µM: 33.4 ± 9.9%
HepG2 cells; concentrations up to 3.3 μM
  effect on viability / growth of HepG2 cells: No significant effect
[2]; 0.32 nM
  viability at 72 h, 0.00032 µM: 111%
[2]; 1.01 nM
  viability at 72 h, 0.00101 µM: 102%
[2]; 3.17 nM
  viability at 72 h, 0.00317 µM: 97.7%
[2]; 10.0 nM
  viability at 72 h, 0.01 µM: 91.6%
[2]; 31.7 nM
  viability at 72 h, 0.0317 µM: 97.4%
[2]; 100 nM
  viability at 72 h, 0.1 µM: 92.5%
[2]; 317 nM
  viability at 72 h, 0.317 µM: 102%
[2]; 1000 nM
  viability at 72 h, 1 µM: 79%
[2]; 3161 nM
  viability at 72 h, 3.161 µM: 84.6%
[2]; 9990 nM
  viability at 72 h, 9.99 µM: 66.6%
